Source: patent US11857560B2, “Pharmaceutical compositions comprising substituted nucleotides and nucleosides for treating viral infections” (priority 2013, dated 2024)

Legend:
[1] = Toxicity in Vero cells (Dengue assay); settings: African green monkey
[2] = Toxicity in Huh-7 cells (Dengue assay); settings: human, Huh-7 cells
[3] = Cytotoxicity panel, HepG2; settings: human, HepG2 cells
[4] = Cytotoxicity panel, BxPC3; settings: human, BxPC3 cells
[5] = Cytotoxicity panel, Huh-7; settings: human, Huh-7 cells, Cytotoxicity (CC50 uM) Huh-7, Huh-7
Cytotoxicity panel, H9c = type: cell-based; settings: rat, H9c cells
Cytotoxicity panel, CEM = settings: human, CEM cells, Cytotoxicity (CC50 uM) CEM
Dengue Type 2 [6] = experiment: Anti-Dengue virus cytoprotection assay, Huh-7 cells; settings: Huh-7, read-out: Dengue Type 2 Huh-7 Cells (EC50 uM)
[7] = Cellular toxicity in parallel with HCV replicon assay (XTT); settings: human
Huh-7 = experiment: Cytotoxicity panel, Huh-7; settings: read-out: Cytotoxicity (CC50 uM) Huh-7; Huh-7
[8] = Cytotoxicity in GT1b replicon cells; type: cell-based
Dengue Virus = experiment: Antiviral activity, Dengue Virus; type: cell-based
RSV = experiment: Antiviral activity, RSV; type: cell-based; settings: human respiratory syncytial virus
CHIK Virus = experiment: Antiviral activity, CHIK Virus; type: cell-based; settings: Chikungunya virus, read-out: CHIK Virus EC50
Influenza A H1N1 = experiment: Antiviral activity, Influenza A H1N1; type: cell-based; settings: Influenza A virus, H1N1; read-out: Influenza A H1N1 EC50
RVFV = experiment: microbe, parasite or virus in culture; type: cell-based; settings: Rift Valley fever virus, read-out: RVFV EC50
VEEV = experiment: microbe, parasite or virus in culture; type: cell-based; settings: Venezuelan equine encephalitis virus, read-out: VEEV EC50
Tacaribe Virus = experiment: microbe, parasite or virus in culture; type: cell-based; settings: Mammarenavirus tacaribeense, read-out: Tacaribe Virus EC50
[9] = system: Influenza A H5N1 (low path); experiment: microbe, parasite or virus in culture; type: cell-based; settings: H5N1, read-out: Influenza A H5N1 (low path) EC50
West Nile Virus = experiment: Antiviral activity, West Nile Virus; type: cell-based; settings: read-out: West Nile Virus EC50
Influenza B = experiment: Antiviral activity, Influenza B; type: cell-based; settings: Influenza B virus; read-out: Influenza B EC50
SARS = experiment: microbe, parasite or virus in culture; settings: Severe acute respiratory syndrome coronavirus, read-out: SARS EC50
Influenza A H3N2 = experiment: Antiviral activity, Influenza A H3N2; type: cell-based; settings: Influenza A virus, H3N2; read-out: Influenza A H3N2 EC50
Measles = experiment: Antiviral activity, Measles; type: cell-based, measles virus; settings: Measles morbillivirus
Cytotoxicity panel, A204 = type: cell-based; settings: human, A204 cells
Dengue Type 2 [10] = experiment: Anti-Dengue virus cytoprotection assay, Vero cells; settings: read-out: Dengue Type 2 Vero Cells (EC50 uM)

Compound: C[C@@]1(O)C(O)[C@@H](CO)O[C@H]1n1ccc(=O)[nH]c1=S (some centres unmarked) [ENUC-01850]
- CC50 [1]: > 100 µM
- CC50 [2]: > 100 µM

Compound: C[C@@]1(O)C(O)[C@@H](CO)O[C@H]1n1ccc(=S)[nH]c1=O (some centres unmarked) [ENUC-01916-1]
- CC50 [3]: > 400 µM

Compound: CC(C)OC(=O)[C@H](C)NP(=O)(OC[C@H]1O[C@@H](n2ccc(=O)[nH]c2=S)[C@](C)(O)C1O)Oc1ccccc1 (some centres unmarked) [ENUC-01911-1]
- CC50 [4]: > 300 µM
- CC50 [5]: > 400 µM
- CC50 (Cytotoxicity panel, H9c): > 200 µM
- CC50 [3]: > 400 µM

Compound: CC(C)OC(=O)[C@H](C)N[P@](=O)(OC[C@H]1O[C@@H](n2ccc(=O)[nH]c2=O)[C@](C)(F)C1O)Oc1ccccc1 (some centres unmarked) [ENUC-02025-1]
- CC50 [5]: 279 µM
- CC50 (Cytotoxicity panel, CEM): > 400 µM
- CC50 [3]: 365 µM

Compound: C[C@@]1(O)C(O)[C@@H](CO)O[C@H]1n1ccc(=O)[nH]c1=S (some centres unmarked) [ENUC-01850-1]
- CC50 [4]: > 100 µM
- CC50 [5]: > 100 µM
- CC50 [3]: > 400 µM

Compound: C#C[C@]1(COP(=O)(N[C@@H](C)C(=O)OC(C)C)Oc2ccccc2)O[C@@H](n2ccc(=O)[nH]c2=S)[C@@H](O)C1O (some centres unmarked) [ENUC-02069-1]
- CC50 [5]: > 400 µM
- EC50 (Dengue Type 2 [6]): > 100 µM
- CC50 (Cytotoxicity panel, CEM): > 400 µM
- CC50 [3]: > 400 µM
- CC50 [2]: > 100 µM

Compound: O=c1[nH]c(=S)ccn1[C@@H]1O[C@H](CO)C(O)[C@@H]1O (some centres unmarked) [ENUC-01893-1]
- CC50 at 72 h [7]: 45.7 µM

Compound: C[C@H](NP(=O)(O)OC[C@H]1O[C@@H](n2ccc(=O)[nH]c2=S)[C@](C)(O)C1O)C(=O)O (some centres unmarked) [ENUC-01997-1]
- CC50 at 72 h [7]: > 100 µM
- CC50 [5]: > 400 µM
- CC50 (Cytotoxicity panel, CEM): > 400 µM
- CC50 [3]: > 400 µM

Compound: CC(C)OC(=O)[C@H](C)NP(=O)(OC[C@H]1O[C@@H](n2ccc(=S)[nH]c2=O)[C@](C)(O)C1O)Oc1ccccc1 (some centres unmarked) [ENUC-01920-1]
- CC50 [5]: > 400 µM
- CC50 [3]: > 400 µM

Compound: CC(C)OC(=O)[C@H](C)NP(=O)(OC[C@H]1O[C@@H](n2ccc(=O)[nH]c2=S)[C@](C)(O)C1O)Oc1ccccc1 (some centres unmarked) [ENUC-01911-2]
- CC50 (Huh-7): > 400 µM
- CC50 [8]: > 10 µM

Compound: CC(C)OC(=O)[C@H](C)NP(=O)(OC[C@H]1O[C@@H](n2ccc(=O)[nH]c2=S)[C@@H](O)C1O)Oc1ccccc1 (some centres unmarked) [ENUC-02071-2]
- CC50 at 72 h [7]: > 100 µM

Compound: Cc1cn([C@@H]2O[C@H](CO)C(O)[C@@H]2F)c(=O)nc1N (some centres unmarked) [EFVX-01855]
- EC50 (Dengue Virus): > 100 µg/mL
- EC50 (RSV): > 100 µM
- EC50 (CHIK Virus): > 100 µg/mL
- EC50 (Influenza A H1N1): > 100 µM
- EC50 (RVFV): > 100 µg/mL
- EC50 (VEEV): > 100 µg/mL
- EC50 (Tacaribe Virus): > 100 µg/mL
- EC50 [9]: > 100 µM
- EC50 (West Nile Virus): > 100 µg/mL
- EC50 (Influenza B): > 100 µM
- EC50 (SARS): > 100 µM
- EC50 (Influenza A H3N2): > 100 µM
- EC50 (Measles): > 100 µM

Compound: Nc1nc(=O)n([C@@H]2O[C@H](CO)C(O)[C@@H]2F)cc1CO (some centres unmarked) [EFVX-01856]
- EC50 (Dengue Virus): > 100 µg/mL
- EC50 (RSV): > 100 µM
- EC50 (CHIK Virus): > 100 µg/mL
- EC50 (Influenza A H1N1): > 100 µM
- EC50 (RVFV): > 100 µg/mL
- EC50 (VEEV): > 100 µg/mL
- EC50 (Tacaribe Virus): > 100 µg/mL
- EC50 [9]: > 100 µM
- EC50 (West Nile Virus): > 100 µg/mL
- EC50 (Influenza B): > 100 µM
- EC50 (SARS): > 100 µM
- EC50 (Influenza A H3N2): > 100 µM
- EC50 (Measles): > 100 µM

Compound: CC(C)OC(=O)[C@H](C)NP(=O)(OC[C@H]1O[C@@H](n2ccc(=O)[nH]c2=[Se])[C@](C)(O)C1O)Oc1ccccc1 (some centres unmarked) [ENUC-02058-1]
- CC50 [5]: > 100 µM
- CC50 [3]: > 400 µM

Compound: C[C@@]1(F)C(O)[C@@H](CO)O[C@H]1n1ccc(=S)[nH]c1=O (some centres unmarked) [ENUC-01946-1]
- CC50 [5]: > 400 µM
- CC50 (Cytotoxicity panel, CEM): > 400 µM
- CC50 [3]: > 400 µM

Compound: CC(C)OC(=O)[C@H](C)NP(=O)(OC[C@H]1O[C@@H](n2ccc(=O)[nH]c2=O)[C@](C)(O)C1O)Oc1ccccc1 (some centres unmarked) [ENUC-01982-1]
- CC50 [4]: 157 µM
- CC50 [5]: 65 µM
- CC50 (Cytotoxicity panel, CEM): 150 µM
- CC50 (Cytotoxicity panel, A204): 124 µM
- CC50 (Cytotoxicity panel, H9c): 31 µM
- CC50 [3]: 159 µM

Compound: CC(C)OC(=O)[C@H](C)NP(=O)(OC[C@@]1(N=[N+]=[N-])O[C@@H](n2ccc(=S)[nH]c2=O)[C@@H](O)C1O)Oc1ccccc1 (some centres unmarked) [ENUC-02083-1]
- CC50 at 72 h [7]: > 100 µM
- EC50 (Dengue Type 2 [6]): 4.82 µM
- CC50 (Cytotoxicity panel, CEM): 229 µM
- CC50 [3]: > 400 µM
- CC50 [2]: > 100 µM

Compound: CNc1ccn([C@@H]2O[C@H](CO)C(O)[C@@H]2F)c(=O)n1 (some centres unmarked) [EFVX-01853]
- EC50 (Dengue Virus): > 100 µg/mL
- EC50 (RSV): > 100 µM
- EC50 (CHIK Virus): > 100 µg/mL
- EC50 (Influenza A H1N1): > 100 µM
- EC50 (RVFV): > 100 µg/mL
- EC50 (VEEV): > 100 µg/mL
- EC50 (Tacaribe Virus): > 100 µg/mL
- EC50 [9]: > 100 µM
- EC50 (West Nile Virus): > 100 µg/mL
- EC50 (Influenza B): > 100 µM
- EC50 (SARS): > 100 µM
- EC50 (Influenza A H3N2): > 100 µM
- EC50 (Measles): > 100 µM

Compound: CC(C)OC(=O)[C@H](C)N[P@@](=O)(OC[C@H]1O[C@@H](n2ccc(=O)[nH]c2=O)[C@](C)(F)C1O)Oc1ccccc1 (some centres unmarked) [ENUC-02026-1]
- CC50 [5]: > 400 µM
- CC50 (Cytotoxicity panel, CEM): > 400 µM
- CC50 [3]: > 400 µM

Compound: CN(C)c1ccn([C@@H]2O[C@H](CO)C(O)[C@@H]2F)c(=O)n1 (some centres unmarked) [EFVX-01854]
- EC50 (Dengue Virus): > 100 µg/mL
- EC50 (RSV): > 100 µM
- EC50 (CHIK Virus): > 100 µg/mL
- EC50 (Influenza A H1N1): > 100 µM
- EC50 (RVFV): > 100 µg/mL
- EC50 (VEEV): > 100 µg/mL
- EC50 (Tacaribe Virus): > 100 µg/mL
- EC50 [9]: > 100 µM
- EC50 (West Nile Virus): > 100 µg/mL
- EC50 (Influenza B): > 100 µM
- EC50 (SARS): > 100 µM
- EC50 (Influenza A H3N2): > 100 µM
- EC50 (Measles): > 100 µM

Compound: CC(C)OC(=O)[C@H](C)NP(=O)(OC[C@H]1O[C@@H](n2ccc(=O)[nH]c2=S)[C@@H](C)C1O)Oc1ccccc1 (some centres unmarked) [ENUC-02078-1]
- CC50 [5]: > 400 µM
- EC50 (Dengue Type 2 [6]): 6.07 µM
- CC50 (Cytotoxicity panel, CEM): 259 µM
- CC50 [3]: > 400 µM
- CC50 [2]: > 100 µM

Compound: CC(C)OC(=O)[C@H](C)N[P@](=O)(OC[C@H]1O[C@@H](n2ccc(=O)[nH]c2=O)[C@](C)(F)C1O)Oc1ccccc1 (some centres unmarked) [GS-7977, reference compound]
- CC50 [8]: > 2 µM

Compound: CC(C)OC(=O)[C@H](C)NP(=O)(OC[C@H]1O[C@@H](n2ccc(=O)[nH]c2=S)[C@@H](O)C1O)Oc1ccccc1 (some centres unmarked) [ENUC-02072-1]
- CC50 [5]: > 400 µM
- CC50 (Cytotoxicity panel, CEM): > 400 µM
- CC50 [3]: > 400 µM

Compound: CC(C)OC(=O)[C@H](C)N[P@@](=O)(OC[C@H]1O[C@@H](n2ccc(=O)[nH]c2=S)[C@](C)(O)C1O)Oc1ccccc1 (some centres unmarked) [ENUC-02024-1]
- CC50 [5]: > 400 µM
- CC50 (Cytotoxicity panel, CEM): > 400 µM
- CC50 [3]: > 400 µM

Compound: CC(C)OC(=O)[C@H](C)N[P@@](=O)(OC[C@H]1O[C@@H](n2ccc(=O)[nH]c2=S)[C@](C)(O)C1O)Oc1ccccc1 (some centres unmarked) [ENUC-02024]
- EC50 (Dengue Type 2 [6]): 24.9 µM
- EC50 (Dengue Type 2 [10]): 56.2 µM
- CC50 [1]: > 100 µM
- CC50 [2]: > 100 µM

Compound: C[C@@]1(O)C(O)[C@@H](COP(=O)(O)O)O[C@H]1n1ccc(=O)[nH]c1=S (some centres unmarked) [ENUC-01984-1]
- CC50 at 72 h [7]: > 100 µM
- CC50 [5]: > 400 µM
- CC50 (Cytotoxicity panel, CEM): > 400 µM
- CC50 [3]: > 400 µM
